Patent US5691374A, “Diaryl-5-oxygenated-2-(5H) -furanones as COX-2 inhibitors” (Merck Frosst Canada Inc., priority 1995, dated 1997)

Key:
[1] = target: T1, COX-2 (Homo sapiens, UniProt P35354); assay: Human Whole Blood (HWB) Assay: COX-2 (LPS-induced PGE2 production); format: cell-based; details: LPS-induced PGE2, 24 hours at 37° C.
T1 construct: incubation of human whole blood with LPS (lipopolysaccharide), which induces COX-2; from tissue; host or cells: fresh heparinized human whole blood from male and female volunteers, LPS-stimulated for 24 hours
T1 sequence (P35354 18-604): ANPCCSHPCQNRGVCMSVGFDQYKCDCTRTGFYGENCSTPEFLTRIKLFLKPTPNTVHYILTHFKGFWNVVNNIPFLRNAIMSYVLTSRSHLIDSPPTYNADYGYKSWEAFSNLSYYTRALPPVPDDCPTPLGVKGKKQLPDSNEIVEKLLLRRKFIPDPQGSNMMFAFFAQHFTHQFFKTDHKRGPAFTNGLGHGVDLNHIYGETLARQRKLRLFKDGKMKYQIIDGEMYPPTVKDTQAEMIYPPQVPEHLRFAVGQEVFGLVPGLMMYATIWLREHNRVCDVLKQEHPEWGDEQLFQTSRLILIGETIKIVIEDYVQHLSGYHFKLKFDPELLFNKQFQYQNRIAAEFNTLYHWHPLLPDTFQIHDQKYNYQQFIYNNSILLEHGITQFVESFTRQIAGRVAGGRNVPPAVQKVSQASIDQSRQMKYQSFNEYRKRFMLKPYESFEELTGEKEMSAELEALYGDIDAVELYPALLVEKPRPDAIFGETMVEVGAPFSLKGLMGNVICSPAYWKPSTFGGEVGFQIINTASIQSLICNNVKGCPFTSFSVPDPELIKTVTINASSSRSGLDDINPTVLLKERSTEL
Description: Human Whole Blood (HWB) Assay Human whole blood provides a protein and cell-rich milieu appropriate for the study of biochemical efficacy of anti-inflammatory compounds such as selective COX-2 inhibitors. […] This is consistent with the observation that COX-2 inhibitors have no effect on PGE2 production in normal blood. These inhibitors are active only after incubation of human whole blood with LPS (lipopolysaccharide), which induces COX-2. This assay can be used to evaluate the inhibitory effect of selective COX-2 inhibitors on PGE2 production. As well, platelets in whole blood contain a large amount of the COX-1 enzyme. Immediately following blood clotting, platelets are activated through a thrombin-mediated mechanism. This reaction results in the production of thromboxane B2 (T×B2) via activation of COX-1. Thus, the effect of test compounds on T×B2 levels levels following blood clotting can be examined and used as an index for COX-1 activity. Therefore, the degree of selectivity by the test compound can be determined by measuring the levels of PGE2 after LPS induction (COX-2) and T×B2 following blood clotting (COX-1) in the same assay. A. COX-2 (LPS-induced PGE2 production) Fresh blood was collected in heparinized tubes by venipuncture from both male and female volunteers. The subjects had no apparent inflammatory conditions and had not taken any NSAIDs for at least 7 days prior to blood collection. Plasma was immediately obtained from a 2 mL blood aliquot to use as blank (basal levels of PGE2). The remaining blood was incubated with LPS ([…] final concentration, Sigma Chem, #L-2630 from E. coli; diluted in 0.1% BSA-Phosphate buffered saline) for […]. […] At the end of the incubation, the blood was centrifuged at 12,000×g for 5 minutes to obtain plasma. A […] aliquot of plasma was mixed with […] of methanol for protein precipitation. The supernatant was obtained and was assayed for PGE2 using a radioimmunoassay kit (Amersham, RPA#530) after conversion of PGE2 to its methyl oximate derivative according to the manufacturer's procedure. Compounds of the present invention are inhibitors of cyclooxygenase-2 and are thereby useful in the treatment of cyclooxygenase-2 mediated diseases as enumerated above. The activities of the compounds against cyclooxygenase may be seen in the representative results shown below. In the assay, inhibition is determined by measuring the amount of prostaglandin E2 (PGE2) synthesized in the presence of arachidonic acid, cyclooxygenase-1 or cyclooxygenase-2 and a putative inhibitor. The IC50 values represent the concentration of putative inhibitor required to return PGE2 synthesis to 50% of that obtained as compared to the uninhibited control.

[2] = tested on: Rat Paw Edema; assay: Rat Paw Edema Assay; format: in vivo; details: male Sprague-Dawley rats, po 1 hr before carrageenan, paw volume increase 3 hr later
Description: Rat Paw Edema Assay-Protocol
Male Sprague-Dawley rats (150-200 g) were fasted overnight and were given po either vehicle (1% methocel or 5% Tween 80) or a test compound. One hr later, a line was drawn using a permanent marker at the level above the ankle in one hind paw to define the area of the paw to be monitored. The paw volume (V0) was measured using a plethysmometer (Ugo-Basile, Italy) based on the principle of water displacement. The animals were then injected subplantarly with […] of 1% carrageenan solution in saline (FMC Corp, Maine) into the paw using an insulin syringe with a 25-gauge needle (i.e. […] carrageenan per paw). Three hr later, the paw volume (V3) was measured and the increases in paw volume (V3 -V0) were calculated. The animals were sacrificed by CO2 aphyxiation and the absence or presence of stomach lesions scored. Data were compared with the vehicle-control values and percent inhibition calculated. Since a maximum of 60-70% inhibition (paw edema) was obtained with standard NSAIDs, ED50 values were used for comparison. All treatment groups were coded to eliminate observer bias.

[3] = target: T2, COX-1 (Homo sapiens, UniProt P23219); assay: Human Whole Blood (HWB) Assay: COX-1 (Clotting-induced TxB2 production); format: cell-based; details: clotting-induced TxB2, 1 hour at 37° C.
T2 construct: platelets in whole blood contain a large amount of the COX-1 enzyme; from tissue; host or cells: fresh human whole blood without anticoagulant, allowed to clot (platelets)
T2 sequence (P23219 24-599): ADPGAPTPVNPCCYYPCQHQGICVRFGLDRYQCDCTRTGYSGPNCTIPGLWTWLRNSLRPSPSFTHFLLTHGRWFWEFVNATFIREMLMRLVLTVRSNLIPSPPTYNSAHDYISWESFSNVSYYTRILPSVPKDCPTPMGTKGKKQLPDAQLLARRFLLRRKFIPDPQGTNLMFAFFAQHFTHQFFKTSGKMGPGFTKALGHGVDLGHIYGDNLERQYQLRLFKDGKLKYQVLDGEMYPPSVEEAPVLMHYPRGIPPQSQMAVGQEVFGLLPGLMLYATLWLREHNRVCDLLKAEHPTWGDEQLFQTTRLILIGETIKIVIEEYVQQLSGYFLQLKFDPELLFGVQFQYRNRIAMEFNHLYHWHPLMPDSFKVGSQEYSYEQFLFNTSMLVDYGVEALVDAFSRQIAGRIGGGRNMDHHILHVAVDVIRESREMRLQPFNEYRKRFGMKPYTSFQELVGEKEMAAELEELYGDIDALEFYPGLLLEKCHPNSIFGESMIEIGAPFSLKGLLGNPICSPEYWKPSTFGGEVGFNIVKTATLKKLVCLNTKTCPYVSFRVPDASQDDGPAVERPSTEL
Description: Human Whole Blood (HWB) Assay
Human whole blood provides a protein and cell-rich milieu appropriate for the study of biochemical efficacy of anti-inflammatory compounds such as selective COX-2 inhibitors. […] This is consistent with the observation that COX-2 inhibitors have no effect on PGE2 production in normal blood. These inhibitors are active only after incubation of human whole blood with LPS (lipopolysaccharide), which induces COX-2. This assay can be used to evaluate the inhibitory effect of selective COX-2 inhibitors on PGE2 production. As well, platelets in whole blood contain a large amount of the COX-1 enzyme. Immediately following blood clotting, platelets are activated through a thrombin-mediated mechanism. This reaction results in the production of thromboxane B2 (T×B2) via activation of COX-1. […] Therefore, the degree of selectivity by the test compound can be determined by measuring the levels of PGE2 after LPS induction (COX-2) and T×B2 following blood clotting (COX-1) in the same assay. […]
Compounds of the present invention are inhibitors of cyclooxygenase-2 and are thereby useful in the treatment of cyclooxygenase-2 mediated diseases as enumerated above. […] In the assay, inhibition is determined by measuring the amount of prostaglandin E2 (PGE2) synthesized in the presence of arachidonic acid, cyclooxygenase-1 or cyclooxygenase-2 and a putative inhibitor. […]

IC50 [1]	IC50 [3]	SMILES	ED50 [2]
1270 nM	–	CC1(O)OC(=O)C(c2ccccc2)=C1c1ccc(S(C)(=O)=O)cc1 (centres unmarked) [Example 4, 5-Hydroxy-5-methyl-4-(4-(methylsulfonyl)phenyl)-3-phenyl-2-(5H)-furanone]	1.53 mg/kg
< 370 nM	–	COC1(C)OC(=O)C(c2ccccc2)=C1c1ccc(S(C)(=O)=O)cc1 (centres unmarked) [Example 10, 5-Methoxy-5-methyl-4-(4-(methylsulfonyl)phenyl)-3-phenyl-2-(5H)-furanone]	1.94 mg/kg

The remaining lines, values behind:

SMILES	IC50 [1]	IC50 [3]	ED50 [2]
CC1(O)OC(=O)C(c2ccc(F)cc2)=C1c1ccc(S(C)(=O)=O)cc1 (centres unmarked) [Example 5, 3-(4-Fluorophenyl)-5-hydroxy-5-methyl-4-(4-(methylsulfonyl)phenyl)-2-(5H)-furanone]	1410 nM	–	1.84 mg/kg
COC1(C)OC(=O)C(c2ccc(F)cc2)=C1c1ccc(S(C)(=O)=O)cc1 (centres unmarked) [Example 15, 3-(4-Fluorophenyl)-5-methoxy-5-methyl-4-(4-(methylsulfonyl)phenyl)-2-(5H)-furanone]	< 370 nM	> 30000 nM	2.8 mg/kg
CC1(O)OC(=O)C(c2ccc(Cl)cc2)=C1c1ccc(S(C)(=O)=O)cc1 (centres unmarked) [Example 6, 3-(4-Chlorophenyl)-5-hydroxy-5-methyl-4-(4-(methylsulfonyl)phenyl)-2-(5H)-furanone]	2420 nM	–	1.41 mg/kg
